Measured values as given in PubChem BioAssay (NCI).
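Protocol summary: plate cells (96-well), add compound at 5 concentrations, incubate 48 h, interpolate endpoints linearly. Abbreviation: GI50, concentration required for 50% inhibition of growth. Definition used: TGI = concentration required for complete inhibition of growth.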

Columns and labels:
Assay in all cases: growth of human tumour cells (NCI), 48 h
SK-OV-3 ovarian = test system: SK-OV-3 ovarian
COLO 205 colon = test system: COLO 205 colon
SR leukemia = test system: SR leukemia
SNB-19 CNS = test system: SNB-19 CNS
NCI-H460 lung = test system: NCI-H460 lung
HCT-15 colon = test system: HCT-15 colon
MCF7 breast = test system: MCF7 breast
EKVX NSCLC = test system: EKVX NSCLC
SF-539 CNS = test system: SF-539 CNS
K-562 leukemia = test system: K-562 leukemia
CAKI-1 renal = test system: CAKI-1 renal
HL-60(TB) leukemia = test system: HL-60(TB) leukemia
UACC-62 melanoma = test system: UACC-62 melanoma
CCRF-CEM leukemia = test system: CCRF-CEM leukemia
UACC-257 melanoma = test system: UACC-257 melanoma
RXF 393 renal = test system: RXF 393 renal
OVCAR-3 ovarian = test system: OVCAR-3 ovarian
T-47D breast = test system: T-47D breast
M14 melanoma = test system: M14 melanoma
TK-10 renal = test system: TK-10 renal
MALME-3M melanoma = test system: MALME-3M melanoma
RPMI-8226 leukemia = test system: RPMI-8226 leukemia
NCI-H226 lung = test system: NCI-H226 lung
786-0 renal = test system: 786-0 renal
U251 CNS = test system: U251 CNS
SW-620 colon = test system: SW-620 colon
KM12 colon = test system: KM12 colon
OVCAR-4 ovarian = test system: OVCAR-4 ovarian
DU-145 prostate = test system: DU-145 prostate
NCI-H522 lung = test system: NCI-H522 lung
PC-3 prostate = test system: PC-3 prostate
A498 renal = test system: A498 renal
IGROV1 ovarian = test system: IGROV1 ovarian
SF-268 CNS = test system: SF-268 CNS
MOLT-4 leukemia = test system: MOLT-4 leukemia
BT-549 breast = test system: BT-549 breast
HCC-2998 colon = test system: HCC-2998 colon
ACHN renal = test system: ACHN renal
LOX IMVI melanoma = test system: LOX IMVI melanoma
HOP-62 NSCLC = test system: HOP-62 NSCLC
OVCAR-5 ovarian = test system: OVCAR-5 ovarian
SK-MEL-28 melanoma = test system: SK-MEL-28 melanoma
OVCAR-8 ovarian = test system: OVCAR-8 ovarian
HOP-92 NSCLC = test system: HOP-92 NSCLC
A549 NSCLC = test system: A549 NSCLC
HCT-116 colon = test system: HCT-116 colon
MDA-MB-435 = test system: MDA-MB-435
MDA-MB-468 breast = test system: MDA-MB-468 breast
SF-295 CNS = test system: SF-295 CNS
HS 578T breast = test system: HS 578T breast
NCI/ADR-RES ovarian = test system: NCI/ADR-RES ovarian
HT29 colon = test system: HT29 colon
SK-MEL-5 melanoma = test system: SK-MEL-5 melanoma
SN12C renal = test system: SN12C renal
NCI-H23 lung = test system: NCI-H23 lung

## c1n[nH]cc1-c1nc2ccc3[nH]ncc3c2c2c1CC1(CCOCC1)CC2
SK-OV-3 ovarian
  GI50: 4.09 µM
  TGI: 60.2 µM
COLO 205 colon
  GI50: 5.62 µM
  TGI: 22.2 µM
SR leukemia
  GI50: 3.33 µM
  TGI: 15.2 µM
SNB-19 CNS
  GI50: 19.3 µM
  TGI: 71.2 µM
NCI-H460 lung
  GI50: 10.1 µM
  TGI: 26.4 µM
HCT-15 colon
  GI50: 19.8 µM
  TGI: > 100 µM
MCF7 breast
  GI50: 13 µM
  TGI: 40.9 µM
EKVX NSCLC
  GI50: 19.2 µM
  TGI: 54.4 µM
SF-539 CNS
  GI50: 13.5 µM
  TGI: 27.3 µM
K-562 leukemia
  GI50: 16.9 µM
  TGI: > 100 µM
CAKI-1 renal
  GI50: 17.3 µM
  TGI: 38.5 µM
HL-60(TB) leukemia
  GI50: 8.38 µM
  TGI: 28.5 µM
UACC-62 melanoma
  GI50: 4.37 µM
  TGI: 15.8 µM
CCRF-CEM leukemia
  GI50: 22.1 µM
  TGI: 80.9 µM
UACC-257 melanoma
  GI50: 14.7 µM
  TGI: 36.5 µM
RXF 393 renal
  GI50: 3.55 µM
  TGI: 16.1 µM
OVCAR-3 ovarian
  GI50: 16.8 µM
  TGI: 65.3 µM
T-47D breast
  GI50: 13 µM
  TGI: 55.8 µM
M14 melanoma
  GI50: 6.24 µM
  TGI: 20.9 µM
TK-10 renal
  GI50: 8.2 µM
  TGI: > 100 µM
MALME-3M melanoma
  GI50: 14.1 µM
  TGI: 27.9 µM
RPMI-8226 leukemia
  GI50: 11.1 µM
  TGI: 42.7 µM
NCI-H226 lung
  GI50: 13.9 µM
  TGI: 39.2 µM
786-0 renal
  GI50: 14.9 µM
  TGI: 43.1 µM
U251 CNS
  GI50: 11.4 µM
  TGI: > 100 µM
SW-620 colon
  GI50: 5.05 µM
  TGI: > 100 µM
KM12 colon
  GI50: 19.2 µM
  TGI: 47.8 µM
OVCAR-4 ovarian
  GI50: 23.4 µM
  TGI: 89.2 µM
DU-145 prostate
  GI50: 17.9 µM
  TGI: > 100 µM
NCI-H522 lung
  GI50: 4.84 µM
  TGI: 21.2 µM
PC-3 prostate
  GI50: 16.7 µM
  TGI: > 100 µM
A498 renal
  GI50: 6.66 µM
  TGI: 22.4 µM
IGROV1 ovarian
  GI50: 19.8 µM
  TGI: 69.6 µM
SF-268 CNS
  GI50: 16.6 µM
  TGI: 41.2 µM
MOLT-4 leukemia
  GI50: 13.4 µM
  TGI: 42.7 µM
BT-549 breast
  GI50: 5.05 µM
  TGI: 18.9 µM
HCC-2998 colon
  GI50: 12.1 µM
  TGI: 32 µM
ACHN renal
  GI50: 7.72 µM
  TGI: > 100 µM
LOX IMVI melanoma
  GI50: 8.51 µM
  TGI: 21.5 µM
HOP-62 NSCLC
  GI50: 15.4 µM
  TGI: 43.3 µM
OVCAR-5 ovarian
  GI50: 27.7 µM
  TGI: 92.3 µM
SK-MEL-28 melanoma
  GI50: 12.1 µM
  TGI: 25.6 µM
OVCAR-8 ovarian
  GI50: 13.3 µM
  TGI: 32.6 µM
HOP-92 NSCLC
  GI50: 13.4 µM
  TGI: 64.1 µM
A549 NSCLC
  GI50: 22.8 µM
  TGI: > 100 µM
HCT-116 colon
  GI50: 4.62 µM
  TGI: > 100 µM
MDA-MB-435
  GI50: 11.6 µM
  TGI: 25.4 µM
MDA-MB-468 breast
  GI50: 10.7 µM
  TGI: 23.2 µM
SF-295 CNS
  GI50: 24.9 µM
  TGI: 71.1 µM
HS 578T breast
  GI50: 7.74 µM
  TGI: 37.5 µM
NCI/ADR-RES ovarian
  GI50: 58.3 µM
  TGI: > 100 µM
HT29 colon
  GI50: 12.5 µM
  TGI: > 100 µM
SK-MEL-5 melanoma
  GI50: 14.8 µM
  TGI: 28.7 µM
SN12C renal
  GI50: 13.3 µM
  TGI: 44.3 µM
NCI-H23 lung
  GI50: 13.8 µM
  TGI: 28.8 µM
